Columns and labels:
eGFP-BCL6 (FL) = molecular target: T1, eGFP-BCL6 (FL) (Homo sapiens, UniProt P41182); assay: BCL6-eGFP-mCherry stability reporter in HEK293T cells; format: cell-based; details: 1 μM
T1 construct: a gene encoding the full-length BCL6 protein fused to eGFP; expressed in transfected cells; host or cells: HEK293T

BCL6^BTB = molecular target: T2, BCL6^BTB (Homo sapiens, UniProt P41182); assay: Luciferase reporter assay, BCL6-BTB-mediated transcriptional repression; format: cell-based; details: even at 20 μM
T2 construct: expressed in transfected cells

[1] = molecular target: BCL6^BTB/SMRT interaction (Homo sapiens, UniProt P41182); assay: HTRF assay, BCL6-BTB/SMRT interaction; format: binding
SF268 = assay: MTS cell viability assay; format: cell-based; details: Homo sapiens, SF-268
Protocol: (§1) Cell viability was tested by MTS assay (Promega, USA). 8000 cells were seeded in a 96-well plate and then treated with compounds for 72 h, followed by the addition of 20 μL of MTS and incubation at 37 °C for 2–3 h. Absorbance at 490 nm is measured with the SpectraMax 190 plate reader, and the IC50 value is calculated by GraphPad Prism. In the drug combination assay, combination index (CI) values were calculated using CalcuSyn software. A CI value greater than 1 has a drug antagonistic effect, and a value less than 1 has a synergistic effect.

U87-MG = assay: MTS cell viability assay; format: cell-based; details: Homo sapiens, U-87 MG
Protocol: as §1

U251 = assay: MTS cell viability assay; format: cell-based; details: Homo sapiens, U-251
Protocol: as §1

BCL6 = assay: Western blotting of BCL6 after TMZ treatment; format: cell-based; details: U251, SF268, U87-MG, 24 h
Protocol: Cell lines were treated with drugs, and tumor tissues were collected in a Ripa lysis buffer. Western blotting was performed using antibodies against BCL6 (14895S, Cell Signaling Technology), PARP (poly(ADP-Ribose) polymerase; 9532S, Cell Signaling Technology), γH2AX (phosphorylated form of H2A.X variant histone; 9718S, Cell Signaling Technology), phospho-ERK (4370S, Cell Signaling Technology), ERK (extracellular signal-regulated kinase; 4695T, Cell Signaling Technology), phospho-AKT (4060S, Cell Signaling Technology), AKT (9272S, Cell Signaling Technology), GAPDH (AB0036, ABWAYS), BCL2 (T40056F, ABWAYS), c-MYC (CY5150, ABWAYS).

U87-MG-Luc xenograft = assay: Intracranial (orthotopic) U87-MG-Luc GBM xenograft; format: in vivo, BALB/c nude mice; details: TMZ 5 mg/kg, YK01 12.5 mg/kg, intraperitoneally
From the text: An orthotopic U87-MG GBM-bearing mouse model of BALB/c nude mice was created. Five microlitres of U87-MG-Luc cells (1 × 10^5 cells) were implanted into the left striatum of anaesthetized animals. The burr hole was then filled with bone wax, and the scalp was closed with tissue glue. To assess the growth of the glioma, bioluminescence imaging (in vivo imaging system, Lumina III) was used to determine its size. […]

With `CNC(=O)COc1cc2cc(Nc3nc(N4C[C@H](C)C[C@H](C)C4)ncc3Cl)ccc2n(C)c1=O` [BI3802] the “effect on eGFP-BCL6 (FL) reporter” value (eGFP-BCL6 (FL)) was “degradation”, the “effect on BCL6^BTB” value (BCL6^BTB) was “little effect” and the IC50 [1] was 0.0027 µM.

`O=C(O)CCN1C(=O)/C(=C2/C(=O)Nc3ccc(Cl)cc32)SC1=S` [FX1] gave an IC50 (SF268) of 43.9 ± 1.23 µM, an IC50 (U87-MG) of 32 ± 1.12 µM and an IC50 (U251) of 37.4 ± 1.41 µM.

For `Cn1nnc2c(C(N)=O)ncn2c1=O` [TMZ, temozolomide], the BCL6 expression (BCL6) was “up-regulated” and the “U87-MG-luci xenograft growth (bioluminescence)” value (U87-MG-Luc xenograft) was “improved”.
